Data: patent US6737383B1, “Herbicidal oxadiazolidines” (priority 1999, dated 2004)

Legend:
bedstraw = assay: Test B pre/postemergence bedstraw; assay type: in vivo, Galium aparine
In short: (§1)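 Response is a visual 0-to-10 score relative to untreated plants, where 0 means no effect and 10 means complete control, taken twelve to sixteen days after application. Treatments went onto soil at planting and onto foliage of 1- to 4-leaf plants, using a surfactant-containing non-phytotoxic solvent.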

blackgrass = assay: Test B pre/postemergence blackgrass; assay type: in vivo, Alopecurus myosuroides
In short: as §1

surinam grass = assay: Test B pre/postemergence surinam grass; assay type: in vivo, Brachiaria decumbens
In short: as §1

cocklebur = assay: Test B pre/postemergence cocklebur; assay type: in vivo, Xanthium strumarium
In short: as §1

corn = assay: Test B pre/postemergence corn; assay type: in vivo, Zea mays
In short: as §1

crabgrass = assay: Test B pre/postemergence crabgrass; assay type: in vivo, Digitaria sanguinalis
In short: as §1

giant foxtail = assay: Test B pre/postemergence giant foxtail; assay type: in vivo, Setaria faberii
In short: as §1

morningglory = assay: Test B pre/postemergence morningglory; assay type: in vivo, Ipomoea hederacea
In short: as §1

pigweed = assay: Test B pre/postemergence pigweed; assay type: in vivo, Amaranthus retroflexus
In short: as §1

rape = assay: Test B pre/postemergence rape; assay type: in vivo, Brassica napus
In short: as §1

soybean = assay: Test B pre/postemergence soybean; assay type: in vivo, Glycine max
In short: as §1

sugar beet = assay: Test B pre/postemergence sugar beet; assay type: in vivo, Beta vulgaris
In short: as §1

velvetleaf = assay: Test B pre/postemergence velvetleaf; assay type: in vivo, Abutilon theophrasti
In short: as §1

wheat = assay: Test B pre/postemergence wheat; assay type: in vivo, Triticum aestivum
In short: as §1

wild oat = assay: Test B pre/postemergence wild oat; assay type: in vivo, Avena fatua
In short: as §1

purple nutsedge = assay: Test B pre/postemergence purple nutsedge; assay type: in vivo, Cyperus rotundus
In short: as §1

[1] = Postemergence, Rate 500 g/ha, scale 0 to 10, 0 is no effect, 10 is complete control
[2] = Preemergence, Rate 62 g/ha, scale of 0 to 10 where 0 is no effect and 10 is complete control
[3] = Preemergence, Rate 125 g/ha, scale 0 to 10, 0 is no effect, 10 is complete control
[4] = Preemergence, Rate 250 g/ha, scale 0 to 10, 0 is no effect, 10 is complete control
[5] = Preemergence, Rate 500 g/ha, scale 0 to 10, 0 is no effect, 10 is complete control
[6] = Postemergence, Rate 62 g/ha, scale of 0 to 10, 0 is no effect, 10 is complete control
[7] = Postemergence, Rate 125 g/ha, scale 0 to 10, 0 is no effect, 10 is complete control
[8] = Postemergence, Rate 250 g/ha, scale 0 to 10
[9] = Preemergence, Rate 500 g/ha, scale of 0 to 10 where 0 is no effect and 10 is complete control
[10] = Postemergence, Rate 250 g/ha, scale 0 to 10, 0 no effect, 10 complete control

CC(C)N(C(=O)n1oc(=O)n(CC2OCCO2)c1=O)c1ccc(F)cc1F [Compound 501]
Plant response rating, Bedstraw (bedstraw; [1]): 9
Plant response rating, Bedstraw (bedstraw; [2]): 2
Bedstraw plant response rating (bedstraw; [3]): 9
Bedstraw plant response rating (bedstraw; [4]): 10
Bedstraw plant response rating (bedstraw; [5]): 9
Blackgrass plant response rating (blackgrass; [6]): 3
Blackgrass plant response rating (blackgrass; [7]): 6
Blackgrass plant response rating (blackgrass; [8]): 6
Plant response rating, Blackgrass (blackgrass; [1]): 7
Plant response rating, Blackgrass (blackgrass; [2]): 5
Blackgrass plant response rating (blackgrass; [3]): 5
Blackgrass plant response rating (blackgrass; [4]): 9
Blackgrass plant response rating (blackgrass; [9]): 9
B. signalgrass plant response rating (surinam grass; [6]): 2
B. signalgrass plant response rating (surinam grass; [7]): 6
B. signalgrass plant response rating (surinam grass; [10]): 7
Plant response rating, B. signalgrass (surinam grass; [1]): 7
Plant response rating, B. signalgrass (surinam grass; [2]): 8
B. signalgrass plant response rating (surinam grass; [3]): 9
B. signalgrass plant response rating (surinam grass; [4]): 9
B. signalgrass plant response rating (surinam grass; [5]): 10
Cocklebur plant response rating (cocklebur; [6]): 0
Cocklebur plant response rating (cocklebur; [7]): 0
Cocklebur plant response rating (cocklebur; [8]): 2
Plant response rating, Cocklebur (cocklebur; [1]): 5
Plant response rating, Cocklebur (cocklebur; [2]): 0
Cocklebur plant response rating (cocklebur; [3]): 0
Cocklebur plant response rating (cocklebur; [4]): 0
Cocklebur plant response rating (cocklebur; [9]): 3
Corn plant response rating (corn; [6]): 0
Corn plant response rating (corn; [7]): 0
Corn plant response rating (corn; [8]): 4
Plant response rating, Corn (corn; [1]): 6
Corn plant response rating (corn; [3]): 2
Crabgrass plant response rating (crabgrass; [6]): 7
Crabgrass plant response rating (crabgrass; [7]): 8
Crabgrass plant response rating (crabgrass; [8]): 9
Plant response rating, Crabgrass (crabgrass; [1]): 8
Plant response rating, Crabgrass (crabgrass; [2]): 8
Crabgrass plant response rating (crabgrass; [3]): 9
Crabgrass plant response rating (crabgrass; [9]): 9
Giant foxtail plant response rating (giant foxtail; [6]): 8
Giant foxtail plant response rating (giant foxtail; [7]): 8
Plant response rating, Giant foxtail (giant foxtail; [1]): 8
Plant response rating, Giant foxtail (giant foxtail; [2]): 9
Giant foxtail plant response rating (giant foxtail; [3]): 10
Giant foxtail plant response rating (giant foxtail; [9]): 10
Morningglory plant response rating (morningglory; [6]): 0
Morningglory plant response rating (morningglory; [7]): 3
Plant response rating, Morningglory (morningglory; [1]): 4
Plant response rating, Morningglory (morningglory; [2]): 0
Morningglory plant response rating (morningglory; [3]): 0
Morningglory plant response rating (morningglory; [9]): 5
Redroot pigweed plant response rating (pigweed; [6]): 0
Redroot pigweed plant response rating (pigweed; [7]): 4
Plant response rating, Redroot pigweed (pigweed; [1]): 5
Plant response rating, Redroot pigweed (pigweed; [2]): 9
Redroot pigweed plant response rating (pigweed; [3]): 10
Redroot pigweed plant response rating (pigweed; [9]): 10
Rape plant response rating (rape; [6]): 2
Rape plant response rating (rape; [7]): 2
Plant response rating, Rape (rape; [1]): 7
Plant response rating, Rape (rape; [2]): 0
Rape plant response rating (rape; [3]): 0
Rape plant response rating (rape; [9]): 10
Soybean plant response rating (soybean; [6]): 4
Soybean plant response rating (soybean; [7]): 3
Plant response rating, Soybean (soybean; [1]): 5
Plant response rating, Soybean (soybean; [2]): 0
Soybean plant response rating (soybean; [3]): 0
Soybean plant response rating (soybean; [9]): 8
Sugarbeets plant response rating (sugar beet; [6]): 5
Sugarbeets plant response rating (sugar beet; [7]): 5
Plant response rating, Sugarbeets (sugar beet; [1]): 8
Plant response rating, Sugarbeets (sugar beet; [2]): 0
Sugarbeets plant response rating (sugar beet; [3]): 3
Sugarbeets plant response rating (sugar beet; [9]): 8
Velvetleaf plant response rating (velvetleaf; [6]): 0
Velvetleaf plant response rating (velvetleaf; [7]): 0
Plant response rating, Velvetleaf (velvetleaf; [1]): 3
Plant response rating, Velvetleaf (velvetleaf; [2]): 0
Velvetleaf plant response rating (velvetleaf; [3]): 2
Velvetleaf plant response rating (velvetleaf; [9]): 5
Wheat plant response rating (wheat; [6]): 2
Plant response rating, Wheat (wheat; [1]): 3
Plant response rating, Wheat (wheat; [2]): 4
Wheat plant response rating (wheat; [3]): 4
Wheat plant response rating (wheat; [9]): 8
Wild oats plant response rating (wild oat; [6]): 0
Wild oats plant response rating (wild oat; [7]): 0
Plant response rating, Wild oats (wild oat; [1]): 3
Plant response rating, Wild oats (wild oat; [2]): 0
Wild oats plant response rating (wild oat; [3]): 7
Wild oats plant response rating (wild oat; [9]): 10
Nutsedge plant response rating (purple nutsedge; [7]): 0
Plant response rating, Nutsedge (purple nutsedge; [1]): 2
Plant response rating, Nutsedge (purple nutsedge; [2]): 0
Nutsedge plant response rating (purple nutsedge; [3]): 3
Nutsedge plant response rating (purple nutsedge; [9]): 9

CC(Cl)=CCn1c(=O)on(C(=O)N(c2ccc(F)cc2F)C(C)C)c1=O [Compound 514]
Plant response rating, Bedstraw (bedstraw; [2]): 0
Bedstraw plant response rating (bedstraw; [4]): 0
Bedstraw plant response rating (bedstraw; [5]): 0
Blackgrass plant response rating (blackgrass; [6]): 0
Blackgrass plant response rating (blackgrass; [7]): 3
Blackgrass plant response rating (blackgrass; [8]): 5
Plant response rating, Blackgrass (blackgrass; [1]): 5
Plant response rating, Blackgrass (blackgrass; [2]): 2
Blackgrass plant response rating (blackgrass; [3]): 2
Blackgrass plant response rating (blackgrass; [4]): 5
Blackgrass plant response rating (blackgrass; [9]): 7
B. signalgrass plant response rating (surinam grass; [6]): 0
B. signalgrass plant response rating (surinam grass; [7]): 0
B. signalgrass plant response rating (surinam grass; [10]): 3
Plant response rating, B. signalgrass (surinam grass; [1]): 5
Plant response rating, B. signalgrass (surinam grass; [2]): 6
B. signalgrass plant response rating (surinam grass; [3]): 6
B. signalgrass plant response rating (surinam grass; [4]): 8
B. signalgrass plant response rating (surinam grass; [5]): 10
Cocklebur plant response rating (cocklebur; [6]): 0
Cocklebur plant response rating (cocklebur; [7]): 1
Cocklebur plant response rating (cocklebur; [8]): 3
Plant response rating, Cocklebur (cocklebur; [1]): 5
Plant response rating, Cocklebur (cocklebur; [2]): 0
Cocklebur plant response rating (cocklebur; [3]): 0
Cocklebur plant response rating (cocklebur; [4]): 0
Cocklebur plant response rating (cocklebur; [9]): 0
Corn plant response rating (corn; [6]): 0
Corn plant response rating (corn; [7]): 0
Corn plant response rating (corn; [8]): 0
Plant response rating, Corn (corn; [1]): 5
Plant response rating, Corn (corn; [2]): 0
Corn plant response rating (corn; [3]): 0
Corn plant response rating (corn; [9]): 5
Crabgrass plant response rating (crabgrass; [6]): 7
Crabgrass plant response rating (crabgrass; [7]): 9
Crabgrass plant response rating (crabgrass; [8]): 9
Plant response rating, Crabgrass (crabgrass; [1]): 10
Plant response rating, Crabgrass (crabgrass; [2]): 5
Crabgrass plant response rating (crabgrass; [3]): 7
Crabgrass plant response rating (crabgrass; [9]): 10
Giant foxtail plant response rating (giant foxtail; [6]): 6
Giant foxtail plant response rating (giant foxtail; [7]): 9
Plant response rating, Giant foxtail (giant foxtail; [1]): 9
Plant response rating, Giant foxtail (giant foxtail; [2]): 9
Giant foxtail plant response rating (giant foxtail; [3]): 10
Giant foxtail plant response rating (giant foxtail; [9]): 10
Morningglory plant response rating (morningglory; [6]): 2
Morningglory plant response rating (morningglory; [7]): 7
Plant response rating, Morningglory (morningglory; [1]): 7
Plant response rating, Morningglory (morningglory; [2]): 0
Morningglory plant response rating (morningglory; [3]): 0
Morningglory plant response rating (morningglory; [9]): 0
Redroot pigweed plant response rating (pigweed; [6]): 0
Redroot pigweed plant response rating (pigweed; [7]): 2
Plant response rating, Redroot pigweed (pigweed; [1]): 8
Plant response rating, Redroot pigweed (pigweed; [2]): 7
Redroot pigweed plant response rating (pigweed; [3]): 8
Redroot pigweed plant response rating (pigweed; [9]): 10
Rape plant response rating (rape; [6]): 6
Rape plant response rating (rape; [7]): 6
Plant response rating, Rape (rape; [1]): 8
Plant response rating, Rape (rape; [2]): 0
Rape plant response rating (rape; [3]): 0
Rape plant response rating (rape; [9]): 8
Soybean plant response rating (soybean; [6]): 6
Soybean plant response rating (soybean; [7]): 7
Plant response rating, Soybean (soybean; [1]): 7
Plant response rating, Soybean (soybean; [2]): 0
Soybean plant response rating (soybean; [3]): 0
Soybean plant response rating (soybean; [9]): 0
Sugarbeets plant response rating (sugar beet; [6]): 3
Sugarbeets plant response rating (sugar beet; [7]): 3
Plant response rating, Sugarbeets (sugar beet; [1]): 5
Plant response rating, Sugarbeets (sugar beet; [2]): 0
Sugarbeets plant response rating (sugar beet; [3]): 5
Sugarbeets plant response rating (sugar beet; [9]): 6
Velvetleaf plant response rating (velvetleaf; [6]): 2
Velvetleaf plant response rating (velvetleaf; [7]): 2
Plant response rating, Velvetleaf (velvetleaf; [1]): 5
Plant response rating, Velvetleaf (velvetleaf; [2]): 0
Velvetleaf plant response rating (velvetleaf; [3]): 0
Velvetleaf plant response rating (velvetleaf; [9]): 5
Wheat plant response rating (wheat; [6]): 0
Wheat plant response rating (wheat; [7]): 0
Plant response rating, Wheat (wheat; [1]): 0
Plant response rating, Wheat (wheat; [2]): 0
Wheat plant response rating (wheat; [3]): 0
Wheat plant response rating (wheat; [9]): 4
Wild oats plant response rating (wild oat; [6]): 0
Wild oats plant response rating (wild oat; [7]): 0
Plant response rating, Wild oats (wild oat; [1]): 3
Plant response rating, Wild oats (wild oat; [2]): 3
Wild oats plant response rating (wild oat; [3]): 4
Wild oats plant response rating (wild oat; [9]): 6
Nutsedge plant response rating (purple nutsedge; [6]): 0
Nutsedge plant response rating (purple nutsedge; [7]): 0
Plant response rating, Nutsedge (purple nutsedge; [1]): 0
Plant response rating, Nutsedge (purple nutsedge; [2]): 0
Nutsedge plant response rating (purple nutsedge; [9]): 0
